# Assay results: patent publication US20260125356A1, “TREATMENT OF LEISHMANIASIS” (THE UNIVERSITY OF DURHAM, priority 2022, published 2026)
# Like-named read-outs stand apart in the source and are kept apart here.
# Columns and labels:
# [1] = tested on: L. donovani promastigotes; test: L. donovani promastigote dose response assay (resazurin); assay type: cell-based; conditions: Leishmania donovani, read-out: EC50 (L. don)/μM
# [2] = Kinetic solubility; conditions: kinetic from dmso stock
# Excerpt: All chemicals and solvents were sourced from commercial suppliers. Buffers were made up using purified water from a MilliQ® water purification system. Biorelevant buffers (FESSIF, FASSIF and FASSGF) were purchased from Biorelevant and made up according to manufacturer's instructions. 15% FBS (heat inactivated, South American origin, ThermoFisher scientific) in PBS (Fisher Scientific) was filter sterilised (0.22 μm Fisherbrand™ Sterile PES Syringe Filter, Fisher Scientific) before use. Sodium taurocholate was purchased from Merck.
# λmax was determined for each compound from the UV-Vis absorption spectrum of a 200 LIM compound solution in buffer of interest using a Varian Cary® 100 UV-Vis Spectrophotometer. A calibration curve of λmax VS concentration was obtained by serial dilution of compound from 200 μM in the buffer of interest, correcting for background buffer absorption. For each sample, a DMSO solution of compound was incubated in buffer of interest (<5% DMSO) for 2 hrs at RT. The solution was filtered (0.22 μm Fisherbrand™ Sterile PES Syringe Filter, Fisher Scientific) or centrifuged (14,500 rpm, 10 min) to remove undissolved debris and the supernatant was removed and diluted as required. The corrected UV absorption of the supernatant at Amax Was measured using a Varian Cary® 100 UV-Vis Spectrophotometer and compared to the calibration curve to determine compound solubility.
# [3] = tested on: T. cruzi epimastigotes; test: T. cruzi epimastigote dose response assay; assay type: cell-based; conditions: Trypanosoma cruzi, read-out: EC50 (T. cruzi)/μM
# [4] = tested on: T. brucei bloodstream trypomastigotes; test: T. brucei bloodstream trypomastigote dose response assay; assay type: cell-based; conditions: Trypanosoma brucei, read-out: EC50 (T. brucei)/μM
# [5] = tested on: L. amazonensis intracellular amastigotes; test: Killing of intracellular amastigotes in infected peritoneal macrophages; assay type: cell-based; conditions: Leishmania amazonensis, Peritoneal macrophage, treated 48 h, read-out: EC50 (amastigote)
# Method: Peritoneal macrophages were plated at 2×10^5/well in 24 well-plate onto circular glass coverslips with medium RPMI+10% HIFCS. After 24 h, macrophages were infected with L. amazonensis (1:10) and cultured at 37″C for 4 h and washed to remove non internalized amastigotes. At 24 h post infection, cells were treated with serial dilutions of compound 53 or Pentostam for 48 h at 37° C. in medium RPMI+5% HIFCS. Afterwards, cells were stained with Rapid Panoptic and the number of intracellular amastigotes in 100 macrophages was counted. EC50 values were calculated by non-linear regression. Means±SD (n=2);
# The ability of compound 53 to kill intracellular amastigotes for cells infected with L. amazonensis was assessed and the cytotoxicity of the compound was investigated. The results are shown in FIGS. 6 to 8 and Table 8 below.
# [6] = Cytotoxicity against macrophages (resazurin); assay type: cell-based; conditions: mouse, bone marrow-derived macrophages (BMDM), read-out: CC50 (macrophage)
# Method: Mouse bone marrow-derived macrophages (BMDM) were plated in 96 well-plate at 1×10^5/well with medium RPMI+10% HIFCS. After 24 h, compound 53 and Pentostam were added at the indicated concentrations, and cells cultured for further 48 h with medium RPMI+5% HIFCS. […] Pentostam CC50 was from curve regression extrapolation. Means±SD (n=5);
# The selectivity index (SI) was calculated by dividing the half maximal cytotoxic concentration (CC50) by the half maximal effective concentration (EC50). CC50 was extrapolated for pentostam.
# [7] = tested on: visceral leishmaniasis; test: In vivo efficacy against experimental visceral leishmaniasis; conditions: single dose 10 mg/kg, BALB/c mice
# Excerpt: FIG. 9 evaluation of efficacy against visceral leishmaniasis in BALB/c mice in (A) the liver and (B) the spleen through Leishman donovani units (LDU) (n=4);
# FIG. 10 evaluation of efficacy against visceral leishmaniasis in BALB/c mice in bone marrow (n=4);
# FIG. 11 evaluation of efficacy against visceral leishmaniasis in BALB/c mice in (A) the liver and (B) the spleen through Limiting Dilution Assay (LDA) (n=4);
# Mice were infected with 2×10^7 promastigotes and kept for 2 months. After 2 months mice were treated with a single dose of phosphate-buffered saline (PBS), an empty liposome formulation (E.Lip), 10 mg/kg of body weight of Drug 3R, 10 mg/kg of body weight of compound 53 (identified in the Figures as drug 10), a liposome composition comprising 10 mg/kg of body weight of Drug 3R (Lip Drug 3R) or a liposome composition comprising 10 mg/kg of body weight of compound 53 (Lip Drug 10). […] The mice were then kept for one month and then sacrificed. Infection in liver and spleen was determined through LDU and LDA (FIGS. 9 and 11), infection in bone marrow was determined by counting amastigotes/1000 cells (FIG. 10).
# Liposomal compositions were prepared by incorporation of an active compound into the lipid bilayer of SA-bearing choline liposome (lipid ratio, 7:2). […]
# [8] = tested on: L. amazonensis-GFP; test: In vivo intralesional treatment of L. amazonensis-GFP (mouse ear); conditions: 0.4 mg in 10 μL PBS, once a week for five weeks
# Method: FIG. 12 evaluation of the parasitic load of intralesional treatment of L. amazonensis-GFP (mouse ear) after treatment with PBS, glucantime, compound 53 (VJL), clemastine fumarate (CF) or clemastine fumarate in a polymeric nanoparticle (NP-CF);
# Mice were infected with L. amazonensis and were then treated intralesionally (IL) with five doses of 10 μL PBS only (control) or 10 μL of PBS containing 0.4 mg of glucantime, compound 53 (VJL), clemastine fumarate (CF) or clemastine fumarate in a polymeric nanoparticle (NP-CF). The mice were treated once a week for five weeks.
# [9] = tested on: S. aureus (FDA209P); test: Antibacterial MIC/growth assay, S. aureus; assay type: cell-based; conditions: 16 hours at 37° C., absorbance 600 nm
# Method: (§1) DMSO was used as a solvent control at a maximum final concentration of 10% (a greater percentage than would be achieved using the compounds at the concentrations in question). Plates were incubated at 37° C. with shaking for 16 hours before measuring absorbance at 600 nm. These values were then used to calculate percentage growth at each dilution of compound in comparison to growth in the absence of compound. The following day, the contents of each well were resuspended using a multichannel pipette, and 5 μl from each well was then applied to LB agar plates. These were incubated at 30° C. in a stationary incubator for 16 hours before imaging.
# [10] = tested on: wild-type E. coli (BW25113); test: Antibacterial MIC/growth assay, wild-type E. coli; assay type: cell-based; conditions: 7.8 to 500 μM, 16 hours at 37° C.
# Method: as §1
# [11] = tested on: ΔrfaC mutant E. coli; test: Antibacterial MIC/growth assay, ΔrfaC mutant E. coli; assay type: cell-based; conditions: 7.8 to 500 μM, 16 hours at 37° C.
# Method: as §1
# [12] = tested on: L. major promastigotes; test: L. major promastigote dose response assay (alamarBlue/resazurin); assay type: cell-based; conditions: Leishmania major, 48 h, 44 hrs + 4 hrs alamarBlue/resazurin, 26° C.
# Method: Using a standard alamarBlue™ assay, activity and selectivity were assessed using L. major promastigotes and HepG2 cells, respectively.
# All parasite and human cell cultures were grown and manipulated following biosafety level 2 instructions under sterile conditions. L. major FV1, L. amazonensis (MHOM/Br/75/JOSEFA), L. donovani BOB (derived from MHOM/SD/62/1S-CL2D), T. brucei (90-13, 427 strain) and T. cruzi (Dm28c) were used throughout.
# All steps were carried out under sterile conditions. Frozen stocks of the relevant Leishmania promastigote species were thawed rapidly and added to Schneider's media. Promastigotes were grown at 26° C. in Nunc EasYFlask 25 cm^2 Nunclon Delta Surface (ThermoScientific) and frozen stocks were prepared on low passage cultures (p2-4) by pelleting the cells by centrifugation and resuspending in Schneider's media with 10% DMSO. The cultures were aliquoted into cryovials (Starlab) and cooled slowly to −150° C. for long term storage.
# All steps were carried out under sterile conditions. […] Cycloheximide or amphotericin B were used as positive controls and 2% DMSO was used as a negative control. alamarBlue® (ThermoFisher scientific) or resazurin solution was added to each well and incubated for a further 4 hrs at 26° C. Cell-viability was determined using a BioTek™ FLx800 microplate reader with Gen5® 1.08 data analysis software (BioTek) by monitoring fluorescence emission (λex 560/λem 590 nm). Dose response curves were fitted using sigmoidal regression analysis (GraphPad Prism 8 software) and used to calculate EC50 values.
# [13] = tested on: L. amazonensis promastigotes; test: L. amazonensis promastigote dose response assay (alamarBlue/resazurin); assay type: cell-based; conditions: Leishmania amazonensis, 48 h, 44 hrs + 4 hrs alamarBlue/resazurin, 26° C., read-out: EC50 (L. amaz)/μM
# [14] = FASSGF, fassgf or other biorelevant
structure (smiles),measurement,setting,value
"CNC(=O)c1ccc(OCCCN2CCOCC2)cc1NC(=O)c1ccc([N+](=O)[O-])s1 [Compound 53, N-[2-(methylcarbamoyl)-5-[3″-(morpholin-4′″-yl)propoxy]phenyl]-5′-nitrothiophene-2′-carboxamide]",EC50,[1]; 72 h,0.044 µM
same,solubility at 2 h,[2]; [14],> 8000 µM
same,solubility at 2 h,[2]; FASSIF,359 µM
same,solubility at 2 h,[2]; FESSIF,4700 µM
same,solubility at 2 h,"[2]; PBS, aqueous buffer",29 µM
same,EC50,[3]; 72 h,3.8 ± 0.5 µM
same,EC50,[4]; 48 h,0.29 ± 0.1 µM
same,EC50,[5],0.6 ± 0.2 µg/mL
same,CC50 at 48 h,[6],16 ± 1 µg/mL
same,"antileishmanial effect in vivo (liver, spleen, bone marrow infection)",[7]; compound alone,reasonable antileishmanial effect
same,"antileishmanial effect in vivo (liver, spleen, bone marrow infection), liposomal formulation",[7]; delivered (iv) in a liposomal formulation,very effective clearance
same,parasitic load after intralesional treatment,[8],effective treatment
same,inhibition of growth of S. aureus,[9],effective at inhibiting the bacteria at low concentrations
same,inhibition of growth of wild-type E. coli,[10],little effect
same,inhibition of growth of ΔrfaC mutant E. coli,[11],some reasonable activity
"CNC(=O)c1ccc(OCCN2CCOCC2)cc1NC(=O)c1ccc([N+](=O)[O-])s1 [Compound 52, N-[2-(methylcarbamoyl)-5-[2″-(morpholin-4″-yl)ethoxy]phenyl]-5′-nitrothiophene-2′-carboxamide]",EC50,[12],0.44 µM
same,EC50,[13],0.27 µM
same,EC50,"[1]; promastigotes, 72 hrs at 26° C., resazurin",0.134 µM
same,solubility at 2 h,[2]; [14],> 8000 µM
same,solubility at 2 h,[2]; FASSIF,148 µM
same,solubility at 2 h,[2]; FESSIF,1870 µM
same,solubility at 2 h,"[2]; PBS, aqueous buffer",19.3 µM
same,EC50,"[3]; epimastigotes, 72 hours at 28° C., counted",13 ± 1 µM
same,EC50,"[4]; bloodstream trypomastigotes, 48 hrs, CellTiter Blue",0.78 ± 0.4 µM
